Source: article PMC6201295 (Leukemia & lymphoma, 2018)
Read-outs that look alike come from different tables or passages of the source. Blank lines part the entries; values can stand above or below the compound they belong to.

What was measured:
[1] = system: CYP3A4; details: liver microsome CYP3A4; cited from earlier work
[2] = Plasma pharmacokinetics of dasatinib in study patients
[3] = cited from earlier work
[4] = system: CYP2C8; details: liver microsome CYP2C8; cited from earlier work
[5] = system: non-APL AML blast cells; details: blasts from more than half of 23 non-APL AML patients; cited from earlier work
[6] = system: CYP2E1; details: cited from earlier work
[7] = system: NAT; details: cited from earlier work
[8] = Plasma pharmacokinetics of ATRA in study patients; format: in vivo; details: human, oral, 22.5 mg/m2
[9] = between- and within patient variability

Compound: Cc1nc(Nc2ncc(C(=O)Nc3c(C)cccc3Cl)s2)cc(N2CCN(CCO)CC2)n1 [Dasatinib]
- increase in dasatinib exposure ([2]; 2 patients, after a month of combination therapy): ~50%
- Cmax ([2]; human, plasma, oral, 70 mg): 77 ng/mL
- Vd ([2]; human, plasma, oral, 70 mg): 2310 L
- AUC(0-inf) ([2]; human, plasma, oral, 100 mg): 434 ng·h/mL
- clearance ([2]; human, plasma, oral, 100 mg): 3920 mL/min
- Cmax ([3]; after a 100 mg dose, (SD)): 56 (SD 66) ng/mL

- AUC(0-inf) [8]: 594 ng·h/mL
- AUC(0-t) [8]: 578 ng·h/mL
- Cmax [8]: 277 ng/mL
- Tmax [8]: 1.6 h
- Vd [8]: 101 L
- clearance [8]: 737 mL/min
- half-life [8]: 0.81 h
Compound: CC1=C(/C=C/C(C)=C/C=C/C(C)=C/C(=O)O)C(C)(C)CCC1 [ATRA, all-trans retinoic acid]
- sensitivity of blasts to ATRA in vitro [5]: moderately sensitive
- increase of the activity of CYP2E1 [6]: 83%
- increase of the activity of NAT [7]: 29%
